Reference: ChEMBL document CHEMBL3864146, “5-Alkyloxytryptamines are membrane-targeting, broad-spectrum antibiotics” (Bioorg Med Chem Lett, 2016)
Values after ≈ are worked out from the molar mass of the structure shown.

Tests used:
Escherichia coli [1] = assay: Antibacterial activity against tolC-deficient Escherichia coli BW25113 after 16 to 18 hrs by micro-dilution method; assay type: functional
Klebsiella pneumoniae [2] = assay: Antibacterial activity against Klebsiella pneumoniae after 16 to 18 hrs by micro-dilution method; assay type: functional
Bacillus subtilis = assay: Antibacterial activity against Bacillus subtilis 168 after 16 to 18 hrs by micro-dilution method; assay type: functional; details: subsp. subtilis str. 168
Escherichia coli [3] = assay: Adjuvant activity assessed as potentiation of chloramphenicol-induced antibacterial activity against Escherichia coli BW25113 at 0.5 times MIC after 16 to 18 hrs by checkerboard assay (reference value: 8 ng/ml); assay type: functional
[4] = Cytotoxicity against HEK cells assessed as cell viability at 1.6 ug/ml after 24 hrs by CellTiter-Glo assay relative to control; assay type: toxicity, cell-based, HEK293; details: human, read-out: Activity
[5] = Cytotoxicity against HEK cells assessed as cell viability at 1.6 ug/ml after 48 hrs by CellTiter-Glo assay relative to control; assay type: toxicity, cell-based, HEK293; details: human, read-out: Activity
Escherichia coli [6] = assay: Adjuvant activity assessed as potentiation of chloramphenicol-induced antibacterial activity against Escherichia coli BW25113 at 0.25 times MIC after 16 to 18 hrs by checkerboard assay (reference value: 8 ng/ml); assay type: functional
Escherichia coli [7] = assay: Adjuvant activity assessed as potentiation of tetracycline-induced antibacterial activity against Escherichia coli BW25113 at 0.25 times MIC after 16 to 18 hrs by checkerboard assay (reference value: 2 ng/ml); assay type: functional
Pseudomonas aeruginosa [8] = assay: Antibacterial activity against Pseudomonas aeruginosa after 16 to 18 hrs by micro-dilution method; assay type: functional
Edwardsiella tarda = assay: Antibacterial activity against Edwardsiella tarda after 16 to 18 hrs by micro-dilution method; assay type: functional
Vibrio cholerae = assay: Antibacterial activity against Vibrio cholerae after 16 to 18 hrs by micro-dilution method; assay type: functional
Acinetobacter baumannii [9] = assay: Adjuvant activity assessed as potentiation of tetracycline-induced antibacterial activity against Acinetobacter baumannii at 3.2 ug/ml after 16 to 18 hrs by checkerboard assay (reference value: 1 ug/ml); assay type: functional
Escherichia coli [10] = assay: Adjuvant activity assessed as potentiation of ciprofloxacin-induced antibacterial activity against Escherichia coli BW25113 at 0.5 times MIC after 16 to 18 hrs by checkerboard assay (reference value: 13 ng/ml); assay type: functional
Staphylococcus aureus [11] = assay: Adjuvant activity assessed as potentiation of tetracycline-induced antibacterial activity against Staphylococcus aureus at 1.6 ug/ml after 16 to 18 hrs by checkerboard assay (reference value: 0.125 ug/ml); assay type: functional
Escherichia coli [12] = assay: Adjuvant activity assessed as potentiation of tetracycline-induced antibacterial activity against Escherichia coli BW25113 at 0.5 times MIC after 16 to 18 hrs by checkerboard assay (reference value: 2 ng/ml); assay type: functional
Escherichia coli [13] = assay: Induction of membrane permeabilization in Escherichia coli BW25113 at MIC after 15 mins by propidium iodide staining-based fluorescence microplate reader method relative to 50% ethanol; assay type: functional
[14] = Cytotoxicity against HEK cells assessed as cell viability at 0.8 ug/ml after 24 hrs by CellTiter-Glo assay relative to control; assay type: toxicity, cell-based, HEK293; details: human, read-out: Activity
[15] = Cytotoxicity against HEK cells assessed as cell viability at 3.2 ug/ml after 24 hrs by CellTiter-Glo assay relative to control; assay type: toxicity, cell-based, HEK293; details: human, read-out: Activity
[16] = Cytotoxicity against HEK cells assessed as cell viability at 0.8 ug/ml after 48 hrs by CellTiter-Glo assay relative to control; assay type: toxicity, cell-based, HEK293; details: human, read-out: Activity
Morganella morganii = assay: Antibacterial activity against Morganella morganii after 16 to 18 hrs by micro-dilution method; assay type: functional
Klebsiella aerogenes = assay: Antibacterial activity against Enterobacter aerogenes after 16 to 18 hrs by micro-dilution method; assay type: functional
Escherichia coli [17] = assay: Adjuvant activity assessed as potentiation of rifampicin-induced antibacterial activity against Escherichia coli BW25113 at 0.25 times MIC after 16 to 18 hrs by checkerboard assay (reference value: 8 ng/ml); assay type: functional
Acinetobacter baumannii [18] = assay: Antibacterial activity against Acinetobacter baumannii after 16 to 18 hrs by micro-dilution method; assay type: functional
Salmonella typhimurium [19] = assay: Adjuvant activity assessed as potentiation of tetracycline-induced antibacterial activity against Salmonella typhimurium at 3.2 ug/ml after 16 to 18 hrs by checkerboard assay (reference value: 1 ug/ml); assay type: functional, Salmonella enterica subsp. enterica serovar Typhimurium; details: Salmonella enterica
Klebsiella pneumoniae [20] = assay: Adjuvant activity assessed as potentiation of tetracycline-induced antibacterial activity against Klebsiella pneumoniae at 3.2 ug/ml after 16 to 18 hrs by checkerboard assay (reference value: 2 ug/ml); assay type: functional
Escherichia coli [21] = assay: Adjuvant activity assessed as potentiation of ciprofloxacin-induced antibacterial activity against Escherichia coli BW25113 at 0.25 times MIC after 16 to 18 hrs by checkerboard assay (reference value: 13 ng/ml); assay type: functional
Shigella boydii = assay: Antibacterial activity against Shigella boydii after 16 to 18 hrs by micro-dilution method; assay type: functional
Escherichia coli [22] = assay: Antibacterial activity against Escherichia coli BW25113 after 16 to 18 hrs by micro-dilution method; assay type: functional
Staphylococcus aureus [23] = assay: Antibacterial activity against Staphylococcus aureus after 16 to 18 hrs by micro-dilution method; assay type: functional
Salmonella typhimurium [24] = assay: Antibacterial activity against Salmonella typhimurium after 16 to 18 hrs by micro-dilution method; assay type: functional, Salmonella enterica subsp. enterica serovar Typhimurium; details: Salmonella enterica
[25] = Cytotoxicity against HEK cells assessed as cell viability at 3.2 ug/ml after 48 hrs by CellTiter-Glo assay relative to control; assay type: toxicity, cell-based, HEK293; details: human, read-out: Activity
Escherichia coli [26] = assay: Adjuvant activity assessed as potentiation of rifampicin-induced antibacterial activity against Escherichia coli BW25113 at 0.5 times MIC after 16 to 18 hrs by checkerboard assay (reference value: 8 ng/ml); assay type: functional
Pseudomonas aeruginosa [27] = assay: Adjuvant activity assessed as potentiation of tetracycline-induced antibacterial activity against Pseudomonas aeruginosa at 3.2 ug/ml after 16 to 18 hrs by checkerboard assay (reference value: 32 ug/ml); assay type: functional
[28] = Cytotoxicity against HEK cells assessed as cell viability at 0.65 ug/ml after 24 hrs by CellTiter-Glo assay relative to control; assay type: toxicity, cell-based, HEK293; details: human, read-out: Activity
[29] = Cytotoxicity against HEK cells assessed as cell viability at 2.6 ug/ml after 48 hrs by CellTiter-Glo assay relative to control; assay type: toxicity, cell-based, HEK293; details: human, read-out: Activity
[30] = Cytotoxicity against HEK cells assessed as cell viability at 2.6 ug/ml after 24 hrs by CellTiter-Glo assay relative to control; assay type: toxicity, cell-based, HEK293; details: human, read-out: Activity
[31] = Cytotoxicity against HEK cells assessed as cell viability at 1.3 ug/ml after 24 hrs by CellTiter-Glo assay relative to control; assay type: toxicity, cell-based, HEK293; details: human, read-out: Activity
[32] = Cytotoxicity against HEK cells assessed as cell viability at 1.3 ug/ml after 48 hrs by CellTiter-Glo assay relative to control; assay type: toxicity, cell-based, HEK293; details: human, read-out: Activity
[33] = Cytotoxicity against HEK cells assessed as cell viability at 0.65 ug/ml after 48 hrs by CellTiter-Glo assay relative to control; assay type: toxicity, cell-based, HEK293; details: human, read-out: Activity
[34] = Cytotoxicity against HEK cells assessed as cell viability at 6.9 ug/ml after 48 hrs by CellTiter-Glo assay relative to control; assay type: toxicity, cell-based, HEK293; details: human, read-out: Activity
[35] = Cytotoxicity against HEK cells assessed as cell viability at 3.5 ug/ml after 24 hrs by CellTiter-Glo assay relative to control; assay type: toxicity, cell-based, HEK293; details: human, read-out: Activity
[36] = Cytotoxicity against HEK cells assessed as cell viability at 14 ug/ml after 24 hrs by CellTiter-Glo assay relative to control; assay type: toxicity, cell-based, HEK293; details: human, read-out: Activity
[37] = Cytotoxicity against HEK cells assessed as cell viability at 6.9 ug/ml after 24 hrs by CellTiter-Glo assay relative to control; assay type: toxicity, cell-based, HEK293; details: human, read-out: Activity
[38] = Cytotoxicity against HEK cells assessed as cell viability at 3.5 ug/ml after 48 hrs by CellTiter-Glo assay relative to control; assay type: toxicity, cell-based, HEK293; details: human, read-out: Activity
[39] = Cytotoxicity against HEK cells assessed as cell viability at 14 ug/ml after 48 hrs by CellTiter-Glo assay relative to control; assay type: toxicity, cell-based, HEK293; details: human, read-out: Activity

SMILES | MIC (Escherichia coli [1]) [µg/mL] | MIC (Klebsiella pneumoniae [2]) [µg/mL] | MIC (Bacillus subtilis) [µg/mL] | MIC (Escherichia coli [3]) [µg/mL] | MIC (Escherichia coli [6]) [µg/mL] | MIC (Escherichia coli [7]) [µg/mL] | MIC (Pseudomonas aeruginosa [8]) [µg/mL] | MIC (Edwardsiella tarda) [µg/mL] | MIC (Vibrio cholerae) [µg/mL] | MIC (Escherichia coli [10]) [µg/mL] | MIC (Escherichia coli [12]) [µg/mL] | MIC (Morganella morganii) [µg/mL] | MIC (Klebsiella aerogenes) [µg/mL] | MIC (Escherichia coli [17]) [µg/mL] | MIC (Acinetobacter baumannii [18]) [µg/mL] | MIC (Escherichia coli [21]) [µg/mL] | MIC (Shigella boydii) [µg/mL] | MIC (Escherichia coli [22]) [µg/mL] | MIC (Staphylococcus aureus [23]) [µg/mL] | MIC (Salmonella typhimurium [24]) [µg/mL] | also measured
CCCCCCCCCCOc1ccc2[nH]cc(CCN)c2c1.Cl | 3.2 | 6.3 | 1.6 | 0.002 | 0.004 | 0.001 | > 101 | 25 | 6.3 | 0.013 | 0.00025 | 101 | 13 | 0.008 | 6.3 | 0.013 | 3.2 | 6.3 | 3.2 to 6.3 | 6.3 | viability at 24 h, 1.6 ug/ml [4]: 29.6%; viability at 48 h, 1.6 ug/ml [5]: 17%; MIC (Acinetobacter baumannii [9]): 0.25 µg/mL; MIC (Staphylococcus aureus [11]): 0.001 µg/mL; Activity (Escherichia coli [13]): 83%; viability at 24 h, 0.8 ug/ml [14]: 59.7%; viability at 24 h, 3.2 ug/ml [15]: 13.4%; viability at 48 h, 0.8 ug/ml [16]: 39.1%; MIC (Salmonella typhimurium [19]): 0.016 µg/mL; MIC (Klebsiella pneumoniae [20]): 2 µg/mL; viability at 48 h, 3.2 ug/ml [25]: 2%; MIC (Escherichia coli [26]): 0.001 µg/mL; MIC (Pseudomonas aeruginosa [27]): 16 µg/mL
CCCCCCCCCOc1cccc(CCN)c1 | 2.6 (≈ 9.87 µM) | 5.3 (≈ 20.1 µM) | 0.66 (≈ 2.51 µM) | 0.004 | 0.008 | 0.002 | 21 (≈ 79.7 µM) | 5.3 (≈ 20.1 µM) | 5.3 (≈ 20.1 µM) | 0.025 | 0.001 | 11 (≈ 41.8 µM) | 5.3 (≈ 20.1 µM) | 0.004 | 5.3 (≈ 20.1 µM) | 0.025 | 5.3 (≈ 20.1 µM) | 5.3 (≈ 20.1 µM) | 5.3 (≈ 20.1 µM) | 5.3 (≈ 20.1 µM) | viability at 24 h, 0.65 ug/ml [28]: 72.7%; viability at 48 h, 2.6 ug/ml [29]: 1.8%; viability at 24 h, 2.6 ug/ml [30]: 3.4%; viability at 24 h, 1.3 ug/ml [31]: 60.5%; viability at 48 h, 1.3 ug/ml [32]: 31%; MIC (Escherichia coli [26]): 0.002 µg/mL; viability at 48 h, 0.65 ug/ml [33]: 58.1%
CCCCCCCCCCCCOc1ccc2[nH]cc(CCN)c2c1.Cl | 6.9 | > 110 | 1.7 | 0.0005 | 0.001 | 0.001 | > 110 | > 110 | 28 | 0.0008 | 0.00025 | > 110 | > 110 | 0.001 | 28 | 0.013 | 14 | 26 | 3.4 | 28 | viability at 48 h, 6.9 ug/ml [34]: 2.6%; viability at 24 h, 3.5 ug/ml [35]: 26%; Activity (Escherichia coli [13]): 10%; viability at 24 h, 14 ug/ml [36]: 1.5%; viability at 24 h, 6.9 ug/ml [37]: 10.4%; viability at 48 h, 3.5 ug/ml [38]: 13.4%; viability at 48 h, 14 ug/ml [39]: 0.2%; MIC (Escherichia coli [26]): 0.00025 µg/mL
